Source: patent US11078216B2, “Bisaryl amides as NRF2 activators” (GLAXOSMITHKLINE INTELLECTUAL PROPERTY DEVELOPMENT LIMITED, priority 2016, dated 2021)

Tested on: NRF2 (NQO1 activity as marker for NRF2 activation), BEAS-2B cells
Assay: BEAS-2B NQO1 MTT Assay
Format: cell-based
Details: Homo sapiens, EC50 of NQO1 specific activity induction, 48 hours incubation, read-out: EC50
From the text: NAD(P)H:quinone oxidoreductase 1 (NQO1), also called DT diaphorase, is a homodimeric FAD-containing enzyme that catalyzes obligatory NAD(P)H-dependent two-electron reductions of quinones and protects cells against the toxic and neoplastic effects of free radicals and reactive oxygen species arising from one-electron reductions. The transcription of NQO1 is finely regulated by NRF2, and thus NQO1 activity is a good marker for NRF2 activation. On day one, frozen BEAS-2B cells (ATCC) are thawed in a water bath, counted, and re-suspended at a concentration of 250,000 cells/mL. Fifty microliters of cells are plated in 384 well black clear-bottomed plates. Plates are incubated at 37° C., 5% CO2 overnight. On day two, plates are centrifuged and 50 nL of compound or controls are added to the cells. Plates are then incubated at 37° C., 5% CO2 for 48 hours. On day four, medium is aspirated from the plate and crude cell lysates are made by adding 13 uL of 1× Cell Signaling Technologies lysis buffer with 1 Complete, Mini, EDTA-free Protease Inhibitor Tablet (Roche) for each 10 mL of lysis buffer. After lysis plates are incubated for 20 minutes at room temperature. Two microliters of lysate are removed for use in Cell Titer Glo assay (Promega) and MTT cocktail is prepared (Prochaska et. al. 1998) for measurement of NQO1 activity. Fifty microliters of MTT cocktail is added to each well, plate is centrifuged, and analyzed on an Envision plate reader (Perkin Elmer) using Absorbance 570 nm label for 30 minutes. Product formation is measured kinetically and the EC50 of NQO1 specific activity induction is calculated by plotting the change in absorbance (Delta OD/min) versus the log of compound concentration followed by 3-parameter fitting.
EC50s<1 nM (+++++), EC50s 1 nM-10 nM (++++), EC50s 10 nM-100 nM (+++), EC50s 100 nM-1 uM (++), EC50s 1-10 uM (+), EC50s>10 uM (−), or were not determined (ND).

Structure (SMILES): CC[C@@H]1CN(Cc2cc([C@H](CC(=O)Nc3ccnn3C)c3ccc4c(nnn4CC)c3C)ccc2C)S(=O)(=O)c2cccnc2O1 [Example 9, (S)-3-(3-(((R)-4-Ethyl-1,1-dioxido-3,4-dihydro-2H-pyrido[2,3-b][1,4,5]oxathiazepin-2-yl)methyl)-4-methylphenyl)-3-(1-ethyl-4-methyl-1H-benzo[d][1,2,3]triazol-5-yl)-N-(1-methyl-1H-pyrazol-5-yl)propanamide]
- EC50: 100 to 1000 nM

Structure (SMILES): CC[C@@H]1CN(Cc2cc([C@H](CC(=O)Nc3cnccc3C)c3ccc4c(nnn4CC)c3C)ccc2C)S(=O)(=O)c2cccnc2O1 [Example 10, (S)-3-(3-(((R)-4-Ethyl-1,1-dioxido-3,4-dihydro-2H-pyrido[2,3-b][1,4,5]oxathiazepin-2-yl)methyl)-4-methylphenyl)-3-(1-ethyl-4-methyl-1H-benzo[d][1,2,3]triazol-5-yl)-N-(4-methylpyridin-3-yl)propanamide]
- EC50: 100 to 1000 nM

Structure (SMILES): CC[C@@H]1CN(Cc2cc([C@H](CC(=O)Nc3cnccc3OC)c3ccc4c(nnn4CC)c3C)ccc2C)S(=O)(=O)c2cccnc2O1 [Example 11, (S)-3-(3-(((R)-4-Ethyl-1,1-dioxido-3,4-dihydro-2H-pyrido[2,3-b][1,4,5]oxathiazepin-2-yl)methyl)-4-methylphenyl)-3-(1-ethyl-4-methyl-1H-benzo[d][1,2,3]triazol-5-yl)-N-(4-methoxypyridin-3-yl)propanamide]
- EC50: 10 to 100 nM

Structure (SMILES): CC[C@@H]1CN(Cc2cc([C@H](CC(=O)Nc3cncc(C(F)(F)F)c3)c3ccc4c(nnn4CC)c3C)ccc2C)S(=O)(=O)c2cccnc2O1 [Example 12, (S)-3-(3-(((R)-4-Ethyl-1,1-dioxido-3,4-dihydro-2H-pyrido[2,3-b][1,4,5]oxathiazepin-2-yl)methyl)-4-methylphenyl)-3-(1-ethyl-4-methyl-1H-benzo[d][1,2,3]triazol-5-yl)-N-(5-(trifluoromethyl)pyridin-3-yl)propanamide]
- EC50: 10 to 100 nM

Structure (SMILES): CC[C@@H]1CN(Cc2cc([C@H](CC(=O)Nc3cncc(OC)c3)c3ccc4c(nnn4CC)c3C)ccc2C)S(=O)(=O)c2cccnc2O1 [Example 13, (S)-3-(3-(((R)-4-Ethyl-1,1-dioxido-3,4-dihydro-2H-pyrido[2,3-b][1,4,5]oxathiazepin-2-yl)methyl)-4-methylphenyl)-3-(1-ethyl-4-methyl-1H-benzo[d][1,2,3]triazol-5-yl)-N-(5-methoxypyridin-3-yl)propanamide]
- EC50: 10 to 100 nM

Structure (SMILES): CC[C@@H]1CN(Cc2cc([C@H](CC(=O)Nc3ccc(C(F)(F)F)nc3)c3ccc4c(nnn4CC)c3C)ccc2C)S(=O)(=O)c2cccnc2O1 [Example 14, (S)-3-(3-(((R)-4-Ethyl-1,1-dioxido-3,4-dihydro-2H-pyrido[2,3-b][1,4,5]oxathiazepin-2-yl)methyl)-4-methylphenyl)-3-(1-ethyl-4-methyl-1H-benzo[d][1,2,3]triazol-5-yl)-N-(6-(trifluoromethyl)pyridin-3-yl)propanamide]
- EC50: 100 to 1000 nM

Structure (SMILES): CC[C@@H]1CN(Cc2cc([C@H](CC(=O)Nc3ccc(C)nc3)c3ccc4c(nnn4CC)c3C)ccc2C)S(=O)(=O)c2cccnc2O1 [Example 15, (S)-3-(3-(((R)-4-Ethyl-1,1-dioxido-3,4-dihydro-2H-pyrido[2,3-b][1,4,5]oxathiazepin-2-yl)methyl)-4-methylphenyl)-3-(1-ethyl-4-methyl-1H-benzo[d][1,2,3]triazol-5-yl)-N-(6-methylpyridin-3-yl)propanamide]
- EC50: 100 to 1000 nM

Structure (SMILES): CC[C@@H]1CN(Cc2cc([C@H](CC(=O)NCc3nccn3C)c3ccc4c(nnn4CC)c3C)ccc2C)S(=O)(=O)c2cccnc2O1 [Example 16, (S)-3-(3-(((R)-4-Ethyl-1,1-dioxido-3,4-dihydro-2H-pyrido[2,3-b][1,4,5]oxathiazepin-2-yl)methyl)-4-methylphenyl)-3-(1-ethyl-4-methyl-1H-benzo[d][1,2,3]triazol-5-yl)-N-((1-methyl-1H-imidazol-2-yl)methyl)propanamide]
- EC50: 1000 to 10000 nM

Structure (SMILES): CC[C@@H]1CN(Cc2cc([C@H](CC(=O)Nc3nccn3C)c3ccc4c(nnn4CC)c3C)ccc2C)S(=O)(=O)c2cccnc2O1 [Example 17, (S)-3-(3-(((R)-4-Ethyl-1,1-dioxido-3,4-dihydro-2H-pyrido[2,3-b][1,4,5]oxathiazepin-2-yl)methyl)-4-methylphenyl)-3-(1-ethyl-4-methyl-1H-benzo[d][1,2,3]triazol-5-yl)-N-(1-methyl-1H-imidazol-2-yl)propanamide]
- EC50: 100 to 1000 nM

Structure (SMILES): CC[C@@H]1CN(Cc2cc([C@H](CC(=O)Nc3cncc4ccccc34)c3ccc4c(nnn4CC)c3C)ccc2C)S(=O)(=O)c2cccnc2O1 [Example 18, (S)-3-(3-(((R)-4-Ethyl-1,1-dioxido-3,4-dihydro-2H-pyrido[2,3-d][1,4,5]oxathiazepin-2-yl)methyl)-4-methylphenyl)-3-(1-ethyl-4-methyl-1H-benzo[d][1,2,3]triazol-5-yl)-N-(isoquinolin-4-yl)propanamide]
- EC50: 10 to 100 nM

Structure (SMILES): CC[C@@H]1CN(Cc2cc([C@H](CC(=O)Nc3ccncc3)c3ccc4c(nnn4CC)c3C)ccc2C)S(=O)(=O)c2cccnc2O1 [Example 19, (S)-3-(3-(((R)-4-Ethyl-1,1-dioxido-3,4-dihydro-2H-pyrido[2,3-b][1,4,5]oxathiazepin-2-yl)methyl)-4-methylphenyl)-3-(1-ethyl-4-methyl-1H-benzo[d][1,2,3]triazol-5-yl)-N-(pyridin-4-yl)propanamide]
- EC50: 100 to 1000 nM

Structure (SMILES): CC[C@@H]1CN(Cc2cc([C@@H](c3ccc4c(nnn4CC)c3C)[C@@H](C)C(=O)N3C(=O)OC[C@H]3Cc3ccccc3)ccc2C)S(=O)(=O)c2cccnc2O1 [Example 20, (R)-4-Benzyl-3-((2R,3S)-3-(3-(((R)-4-ethyl-1,1-dioxido-3,4-dihydro-2H-pyrido[2,3-b][1,4,5]oxathiazepin-2-yl)methyl)-4-methylphenyl)-3-(1-ethyl-4-methyl-1H-benzo[d][1,2,3]triazol-5-yl)-2-methylpropanoyl)oxazolidin-2-one]
- EC50: 100 to 1000 nM

Structure (SMILES): CC[C@@H]1CN(Cc2cc([C@H](CC(=O)NCCC(=O)N(C)C)c3ccc4c(nnn4CC)c3C)ccc2C)S(=O)(=O)c2cccnc2O1 [Example 21, (S)—N-(3-(Dimethylamino)-3-oxopropyl)-3-(3-(((R)-4-ethyl-1,1-dioxido-3,4-dihydro-2H-pyrido[2,3-b][1,4,5]oxathiazepin-2-yl)methyl)-4-methylphenyl)-3-(1-ethyl-4-methyl-1H-benzo[d][1,2,3]triazol-5-yl)propanamide]
- EC50: 1000 to 10000 nM

Structure (SMILES): CC[C@@H]1CN(Cc2cc([C@H](CC(=O)NC3CCOC3)c3ccc4c(nnn4CC)c3C)ccc2C)S(=O)(=O)c2cccnc2O1 (stereo partly drawn) [Example 22, (3S)-3-(3-(((R)-4-Ethyl-1,1-dioxido-3,4-dihydro-2H-pyrido[2,3-b][1,4,5]oxathiazepin-2-yl)methyl)-4-methylphenyl)-3-(1-ethyl-4-methyl-1H-benzo[d][1,2,3]triazol-5-yl)-N-(tetrahydrofuran-3-yl)propanamide]
- EC50: 100 to 1000 nM

Structure (SMILES): CC[C@@H]1CN(Cc2cc([C@H](CC(=O)NC(C)(C)C(N)=O)c3ccc4c(nnn4CC)c3C)ccc2C)S(=O)(=O)c2cccnc2O1 [Example 23, (S)-N-(1-Amino-2-methyl-1-oxopropan-2-yl)-3-(3-(((R)-4-ethyl-1,1-dioxido-3,4-dihydro-2H-pyrido[2,3-b][1,4,5]oxathiazepin-2-yl)methyl)-4-methylphenyl)-3-(1-ethyl-4-methyl-1H-benzo[d][1,2,3]triazol-5-yl)propanamide]
- EC50: 1000 to 10000 nM

Structure (SMILES): CC[C@@H]1CN(Cc2cc([C@H](CC(=O)NC3CN(C)C3)c3ccc4c(nnn4CC)c3C)ccc2C)S(=O)(=O)c2cccnc2O1 [Example 24, (S)-3-(3-(((R)-4-Ethyl-1,1-dioxido-3,4-dihydro-2H-pyrido[2,3-b][1,4,5]oxathiazepin-2-yl)methyl)-4-methylphenyl)-3-(1-ethyl-4-methyl-1H-benzo[d][1,2,3]triazol-5-yl)-N-(1-methylazetidin-3-yl)propanamide]
- EC50: 1000 to 10000 nM

Structure (SMILES): CC[C@@H]1CN(Cc2cc([C@H](CC(=O)NC3CCCOC3)c3ccc4c(nnn4CC)c3C)ccc2C)S(=O)(=O)c2cccnc2O1 (stereo partly drawn) [Example 25, (3S)-3-(3-(((R)-4-Ethyl-1,1-dioxido-3,4-dihydro-2H-pyrido[2,3-b][1,4,5]oxathiazepin-2-yl)methyl)-4-methylphenyl)-3-(1-ethyl-4-methyl-1H-benzo[d][1,2,3]triazol-5-yl)-N-(tetrahydro-2H-pyran-3-yl)propanamide]
- EC50: 100 to 1000 nM

Structure (SMILES): CC[C@@H]1CN(Cc2cc([C@H](CC(=O)NCC3CCOC3)c3ccc4c(nnn4CC)c3C)ccc2C)S(=O)(=O)c2cccnc2O1 (stereo partly drawn) [Example 26, (3S)-3-(3-(((R)-4-Ethyl-1,1-dioxido-3,4-dihydro-2H-pyrido[2,3-b][1,4,5]oxathiazepin-2-yl)methyl)-4-methylphenyl)-3-(1-ethyl-4-methyl-1H-benzo[d][1,2,3]triazol-5-yl)-N-((tetrahydrofuran-3-yl)methyl)propanamide]
- EC50: 100 to 1000 nM
